Literature values as cited in patent US12605385B2, “Methotrexate formulation” (Therakind Ltd., priority 2014, dated 2026).
Like-named read-outs stand apart in the source and are kept apart here.

Assays:
[1] = 50% v/v propylene glycol: water formulation

CN(Cc1cnc2nc(N)nc(N)c2n1)c1ccc(C(=O)N[C@@H](CCC(=O)O)C(=O)O)cc1 [Methotrexate, 4-amino-N^10-methylpteroylglutamic acid]
solubility (in alkaline solution): freely soluble
solubility (in hydrochloric acid): slightly soluble
solubility (in water, alcohol, chloroform and ether): almost insoluble
drug solubility on increasing the vehicle pH to 6.34 [1]: further increased
solubility at pH 5.29 compared with pH 4 [1]: significantly higher
